Experimental data from ChEMBL document CHEMBL4118098, “Discovery of DS28120313 as a potent orally active hepcidin production inhibitor: Design and optimization of novel 4,6-disubstituted indazole derivatives” (Bioorg Med Chem Lett, 2017).

Columns and labels:
[1] = target: T1, Testis-specific serine/threonine-protein kinase 2 (Homo sapiens) (UniProt Q96PF2); assay: Inhibition of TSSK2 (unknown origin) at 0.45 uM relative to control
T1 sequence (whole entry): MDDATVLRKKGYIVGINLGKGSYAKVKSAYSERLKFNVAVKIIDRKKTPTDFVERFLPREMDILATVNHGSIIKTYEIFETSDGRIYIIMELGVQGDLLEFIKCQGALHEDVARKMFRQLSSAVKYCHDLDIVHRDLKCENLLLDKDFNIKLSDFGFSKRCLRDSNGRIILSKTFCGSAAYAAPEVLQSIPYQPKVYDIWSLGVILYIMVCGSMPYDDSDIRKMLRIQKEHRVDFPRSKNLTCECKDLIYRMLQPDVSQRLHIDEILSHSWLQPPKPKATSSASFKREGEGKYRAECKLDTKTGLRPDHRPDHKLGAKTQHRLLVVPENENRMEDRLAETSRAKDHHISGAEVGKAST

[2] = target: Mitogen-activated protein kinase 13 (Homo sapiens) (UniProt O15264); assay: Inhibition of p38-delta (unknown origin) at 0.19 uM relative to control
[3] = target: Ephrin type-A receptor 1 (Homo sapiens) (UniProt P21709); assay: Inhibition of EPHA1 (unknown origin) at 0.19 uM relative to control
[4] = target: Aurora kinase B (Homo sapiens) (UniProt Q96GD4); assay: Inhibition of AurB (unknown origin) at 0.19 uM relative to control
[5] = target: Ribosomal protein S6 kinase alpha-3 (Homo sapiens) (UniProt P51812); assay: Inhibition of RSK2 (unknown origin) at 0.19 uM relative to control
[6] = target: Ephrin type-A receptor 3 (Homo sapiens) (UniProt P29320); assay: Inhibition of EPHA3 (unknown origin) at 0.19 uM relative to control
[7] = target: Cyclin-dependent kinase 5/CDK5 activator 1 (Homo sapiens) (UniProt Q00535+Q15078); assay: Inhibition of CDK5/p25 (unknown origin) at 0.19 uM relative to control; type: protein-complex assay
[8] = target: T2, Mitogen-activated protein kinase 12 (Homo sapiens) (UniProt P53778); assay: Inhibition of p38-gamma (unknown origin) at 0.19 uM relative to control
T2 sequence (whole entry): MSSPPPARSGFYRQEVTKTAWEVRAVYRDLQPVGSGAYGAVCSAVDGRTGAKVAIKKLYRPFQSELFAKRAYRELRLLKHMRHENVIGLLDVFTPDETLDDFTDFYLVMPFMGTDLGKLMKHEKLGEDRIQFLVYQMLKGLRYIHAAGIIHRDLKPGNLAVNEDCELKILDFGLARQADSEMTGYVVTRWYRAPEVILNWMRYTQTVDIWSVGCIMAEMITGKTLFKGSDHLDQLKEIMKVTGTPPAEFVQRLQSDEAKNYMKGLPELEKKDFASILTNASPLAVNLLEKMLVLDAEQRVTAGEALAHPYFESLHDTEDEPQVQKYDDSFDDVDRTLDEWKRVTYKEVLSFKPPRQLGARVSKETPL

[9] = target: Insulin-like growth factor 1 receptor (Homo sapiens) (UniProt P08069); assay: Inhibition of IGF1R (unknown origin) at 0.19 uM relative to control
[10] = target: Protein-tyrosine kinase 2-beta (Homo sapiens) (UniProt Q14289); assay: Inhibition of PYK2 (unknown origin) at 0.19 uM relative to control
[11] = target: Homeodomain-interacting protein kinase 2 (Homo sapiens) (UniProt Q9H2X6); assay: Inhibition of HIPK2 (unknown origin) at 0.164 uM relative to control
[12] = target: Tyrosine-protein kinase Fgr (Homo sapiens) (UniProt P09769); assay: Inhibition of FGR (unknown origin) at 0.164 uM relative to control
[13] = target: Serine/threonine-protein kinase Nek2 (Homo sapiens) (UniProt P51955); assay: Inhibition of NEK2 (unknown origin) at 0.164 uM relative to control
[14] = test system: Platelet-derived growth factor receptor alpha (Homo sapiens), P16234 [D842V]; assay: Inhibition of PDGFRA D842V mutant (unknown origin) at 0.164 uM relative to control
[15] = target: Ephrin type-A receptor 2 (Homo sapiens) (UniProt P29317); assay: Inhibition of EPHA2 (unknown origin) at 0.164 uM relative to control
[16] = target: Tyrosine-protein kinase SYK (Homo sapiens) (UniProt P43405); assay: Inhibition of SYK (unknown origin) at 0.164 uM relative to control
[17] = target: Ribosomal protein S6 kinase alpha-4 (Homo sapiens) (UniProt O75676); assay: Inhibition of MSK2 (unknown origin) at 0.164 uM relative to control
[18] = target: Ephrin type-A receptor 5 (Homo sapiens) (UniProt P54756); assay: Inhibition of EPHA5 (unknown origin) at 0.164 uM relative to control
[19] = target: Dual specificity tyrosine-phosphorylation-regulated kinase 3 (Homo sapiens) (UniProt O43781); assay: Inhibition of DYRK3 (unknown origin) at 0.164 uM relative to control
[20] = organism: Homo sapiens; assay: Inhibition of PKA (unknown origin) at 0.164 uM relative to control
[21] = target: Mast/stem cell growth factor receptor Kit (Homo sapiens) (UniProt P10721); assay: Inhibition of KIT (unknown origin) at 0.164 uM relative to control
[22] = target: Mitogen-activated protein kinase 3 (Homo sapiens) (UniProt P27361); assay: Inhibition of Erk1 (unknown origin) at 0.164 uM relative to control
[23] = target: Cytoplasmic tyrosine-protein kinase BMX (Homo sapiens) (UniProt P51813); assay: Inhibition of BMX (unknown origin) at 0.164 uM relative to control
[24] = target: T3, Protein kinase C iota type (Homo sapiens) (UniProt P41743); assay: Inhibition of PKC-iota (unknown origin) at 0.164 uM relative to control
T3 sequence (whole entry): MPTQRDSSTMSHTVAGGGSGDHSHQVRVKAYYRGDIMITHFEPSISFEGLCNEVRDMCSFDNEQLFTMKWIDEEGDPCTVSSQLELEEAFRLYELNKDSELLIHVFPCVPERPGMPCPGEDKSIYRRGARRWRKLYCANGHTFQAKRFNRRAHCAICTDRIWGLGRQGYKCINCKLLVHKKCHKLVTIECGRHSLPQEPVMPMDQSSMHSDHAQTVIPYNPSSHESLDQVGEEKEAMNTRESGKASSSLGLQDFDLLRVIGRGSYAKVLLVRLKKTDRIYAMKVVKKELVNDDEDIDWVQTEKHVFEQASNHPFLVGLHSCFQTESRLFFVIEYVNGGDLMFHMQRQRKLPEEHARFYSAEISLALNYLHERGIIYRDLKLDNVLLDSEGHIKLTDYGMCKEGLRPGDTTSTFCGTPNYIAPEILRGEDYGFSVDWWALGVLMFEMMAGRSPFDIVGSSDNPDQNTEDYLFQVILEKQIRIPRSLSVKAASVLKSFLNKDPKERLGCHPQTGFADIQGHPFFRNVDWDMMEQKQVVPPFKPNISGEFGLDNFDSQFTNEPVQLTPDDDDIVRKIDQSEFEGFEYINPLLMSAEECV

Chain of Ribosomal protein S6 kinase alpha-4 (Homo sapiens) (O75676 whole entry, looked up): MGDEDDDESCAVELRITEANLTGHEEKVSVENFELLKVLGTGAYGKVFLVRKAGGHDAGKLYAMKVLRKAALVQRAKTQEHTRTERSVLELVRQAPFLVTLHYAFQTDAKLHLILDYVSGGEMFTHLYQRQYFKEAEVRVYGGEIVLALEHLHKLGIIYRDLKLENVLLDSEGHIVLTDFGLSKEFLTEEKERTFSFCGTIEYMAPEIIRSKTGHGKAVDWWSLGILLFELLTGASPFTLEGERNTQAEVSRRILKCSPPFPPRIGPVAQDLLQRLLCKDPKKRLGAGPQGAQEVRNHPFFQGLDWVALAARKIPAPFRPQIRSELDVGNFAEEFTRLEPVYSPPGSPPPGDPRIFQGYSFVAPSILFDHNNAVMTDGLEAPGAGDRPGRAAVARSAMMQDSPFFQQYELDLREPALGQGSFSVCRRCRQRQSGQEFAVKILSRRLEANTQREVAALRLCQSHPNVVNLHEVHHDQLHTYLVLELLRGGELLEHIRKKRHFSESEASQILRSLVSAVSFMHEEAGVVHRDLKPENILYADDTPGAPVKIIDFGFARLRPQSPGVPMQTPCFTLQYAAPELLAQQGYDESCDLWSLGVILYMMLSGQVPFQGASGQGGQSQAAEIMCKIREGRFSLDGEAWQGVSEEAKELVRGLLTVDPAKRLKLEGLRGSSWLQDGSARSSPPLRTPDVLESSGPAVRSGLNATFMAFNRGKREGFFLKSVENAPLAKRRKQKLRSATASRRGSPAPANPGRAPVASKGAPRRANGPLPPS
Chain of Ephrin type-A receptor 5 (Homo sapiens) (P54756 whole entry): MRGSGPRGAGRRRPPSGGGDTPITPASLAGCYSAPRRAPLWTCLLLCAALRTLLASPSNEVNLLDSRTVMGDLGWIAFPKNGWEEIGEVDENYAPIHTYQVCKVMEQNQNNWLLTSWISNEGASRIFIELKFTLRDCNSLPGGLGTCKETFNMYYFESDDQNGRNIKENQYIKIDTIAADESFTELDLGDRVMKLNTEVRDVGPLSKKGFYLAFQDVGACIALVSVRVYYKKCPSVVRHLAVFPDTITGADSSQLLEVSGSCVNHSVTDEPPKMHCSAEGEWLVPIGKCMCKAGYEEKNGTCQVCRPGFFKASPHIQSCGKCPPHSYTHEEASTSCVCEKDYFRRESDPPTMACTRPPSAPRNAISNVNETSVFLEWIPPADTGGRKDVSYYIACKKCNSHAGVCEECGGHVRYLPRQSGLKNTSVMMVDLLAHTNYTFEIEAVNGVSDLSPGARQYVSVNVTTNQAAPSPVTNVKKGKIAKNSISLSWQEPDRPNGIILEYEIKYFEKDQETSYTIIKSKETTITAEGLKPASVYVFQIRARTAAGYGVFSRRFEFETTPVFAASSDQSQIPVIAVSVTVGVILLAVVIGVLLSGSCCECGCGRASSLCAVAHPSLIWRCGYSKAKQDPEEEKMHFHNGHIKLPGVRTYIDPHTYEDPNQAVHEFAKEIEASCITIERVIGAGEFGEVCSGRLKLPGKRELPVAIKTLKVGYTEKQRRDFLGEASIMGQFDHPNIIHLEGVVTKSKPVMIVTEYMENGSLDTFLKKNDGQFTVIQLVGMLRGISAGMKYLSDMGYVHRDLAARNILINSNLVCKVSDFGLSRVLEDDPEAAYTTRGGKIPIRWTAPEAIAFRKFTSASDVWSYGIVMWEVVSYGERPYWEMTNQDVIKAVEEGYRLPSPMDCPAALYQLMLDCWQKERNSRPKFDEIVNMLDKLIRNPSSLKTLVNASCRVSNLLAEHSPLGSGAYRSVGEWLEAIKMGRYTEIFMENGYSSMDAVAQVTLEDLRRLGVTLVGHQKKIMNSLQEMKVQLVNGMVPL
Chain of Dual specificity tyrosine-phosphorylation-regulated kinase 3 (Homo sapiens) (O43781 whole entry): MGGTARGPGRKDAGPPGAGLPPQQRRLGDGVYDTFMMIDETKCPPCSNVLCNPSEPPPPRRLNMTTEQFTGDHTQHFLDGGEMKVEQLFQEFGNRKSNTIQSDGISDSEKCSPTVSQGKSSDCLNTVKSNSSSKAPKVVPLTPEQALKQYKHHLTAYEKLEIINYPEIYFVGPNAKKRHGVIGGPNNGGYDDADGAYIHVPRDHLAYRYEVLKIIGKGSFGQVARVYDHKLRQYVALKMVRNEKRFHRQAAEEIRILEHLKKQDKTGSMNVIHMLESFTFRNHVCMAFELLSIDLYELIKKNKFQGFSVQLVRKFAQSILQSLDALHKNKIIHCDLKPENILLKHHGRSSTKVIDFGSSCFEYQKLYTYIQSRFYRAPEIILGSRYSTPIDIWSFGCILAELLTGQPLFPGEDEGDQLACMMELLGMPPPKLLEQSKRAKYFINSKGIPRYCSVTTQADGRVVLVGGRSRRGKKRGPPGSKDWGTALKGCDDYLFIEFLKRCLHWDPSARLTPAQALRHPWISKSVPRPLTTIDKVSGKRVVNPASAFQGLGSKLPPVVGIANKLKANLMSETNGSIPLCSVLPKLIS
Chain of Ephrin type-A receptor 2 (Homo sapiens) (P29317 whole entry): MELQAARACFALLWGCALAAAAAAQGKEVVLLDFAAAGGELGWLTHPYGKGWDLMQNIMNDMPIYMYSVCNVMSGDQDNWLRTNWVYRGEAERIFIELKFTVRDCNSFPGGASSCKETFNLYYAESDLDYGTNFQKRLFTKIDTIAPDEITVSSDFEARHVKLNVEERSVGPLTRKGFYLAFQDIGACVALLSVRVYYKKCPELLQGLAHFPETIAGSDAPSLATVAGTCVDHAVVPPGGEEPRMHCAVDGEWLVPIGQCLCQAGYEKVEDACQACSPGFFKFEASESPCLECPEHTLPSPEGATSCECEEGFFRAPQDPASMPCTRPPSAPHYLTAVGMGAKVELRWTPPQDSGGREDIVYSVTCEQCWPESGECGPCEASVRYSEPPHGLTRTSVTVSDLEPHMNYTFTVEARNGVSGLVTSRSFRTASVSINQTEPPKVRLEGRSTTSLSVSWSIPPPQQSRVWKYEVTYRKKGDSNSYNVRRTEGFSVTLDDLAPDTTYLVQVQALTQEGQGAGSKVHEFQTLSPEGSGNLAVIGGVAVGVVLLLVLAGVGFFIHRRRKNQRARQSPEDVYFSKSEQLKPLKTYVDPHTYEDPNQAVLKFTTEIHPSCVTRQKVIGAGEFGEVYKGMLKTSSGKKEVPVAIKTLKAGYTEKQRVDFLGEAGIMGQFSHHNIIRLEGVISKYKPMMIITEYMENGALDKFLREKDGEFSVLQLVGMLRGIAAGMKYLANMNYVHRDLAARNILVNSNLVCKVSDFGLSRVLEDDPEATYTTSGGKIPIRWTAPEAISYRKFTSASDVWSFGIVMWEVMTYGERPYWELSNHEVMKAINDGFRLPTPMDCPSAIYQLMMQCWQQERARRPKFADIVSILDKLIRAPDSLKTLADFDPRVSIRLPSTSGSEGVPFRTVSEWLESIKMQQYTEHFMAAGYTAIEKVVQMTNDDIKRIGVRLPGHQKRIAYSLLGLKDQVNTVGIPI
Chain of Cytoplasmic tyrosine-protein kinase BMX (Homo sapiens) (P51813 whole entry): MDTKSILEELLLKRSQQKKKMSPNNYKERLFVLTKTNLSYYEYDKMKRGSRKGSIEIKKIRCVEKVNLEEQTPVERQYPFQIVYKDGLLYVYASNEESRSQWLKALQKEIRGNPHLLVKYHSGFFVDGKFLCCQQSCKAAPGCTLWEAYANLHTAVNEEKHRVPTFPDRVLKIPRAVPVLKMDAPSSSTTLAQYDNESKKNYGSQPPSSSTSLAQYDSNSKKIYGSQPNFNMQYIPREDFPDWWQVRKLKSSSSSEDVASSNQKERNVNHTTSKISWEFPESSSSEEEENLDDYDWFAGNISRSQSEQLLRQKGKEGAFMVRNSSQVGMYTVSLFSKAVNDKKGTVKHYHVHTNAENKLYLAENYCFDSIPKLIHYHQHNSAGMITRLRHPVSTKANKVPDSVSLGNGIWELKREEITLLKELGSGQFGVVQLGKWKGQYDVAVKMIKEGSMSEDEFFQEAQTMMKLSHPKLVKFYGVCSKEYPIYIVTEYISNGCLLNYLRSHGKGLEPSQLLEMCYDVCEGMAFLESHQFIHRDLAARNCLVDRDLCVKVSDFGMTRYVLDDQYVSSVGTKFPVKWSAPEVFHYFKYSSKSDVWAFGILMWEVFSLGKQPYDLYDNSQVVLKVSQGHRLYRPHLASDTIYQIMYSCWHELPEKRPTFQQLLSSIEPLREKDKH
Chain of Ribosomal protein S6 kinase alpha-3 (Homo sapiens) (P51812 whole entry): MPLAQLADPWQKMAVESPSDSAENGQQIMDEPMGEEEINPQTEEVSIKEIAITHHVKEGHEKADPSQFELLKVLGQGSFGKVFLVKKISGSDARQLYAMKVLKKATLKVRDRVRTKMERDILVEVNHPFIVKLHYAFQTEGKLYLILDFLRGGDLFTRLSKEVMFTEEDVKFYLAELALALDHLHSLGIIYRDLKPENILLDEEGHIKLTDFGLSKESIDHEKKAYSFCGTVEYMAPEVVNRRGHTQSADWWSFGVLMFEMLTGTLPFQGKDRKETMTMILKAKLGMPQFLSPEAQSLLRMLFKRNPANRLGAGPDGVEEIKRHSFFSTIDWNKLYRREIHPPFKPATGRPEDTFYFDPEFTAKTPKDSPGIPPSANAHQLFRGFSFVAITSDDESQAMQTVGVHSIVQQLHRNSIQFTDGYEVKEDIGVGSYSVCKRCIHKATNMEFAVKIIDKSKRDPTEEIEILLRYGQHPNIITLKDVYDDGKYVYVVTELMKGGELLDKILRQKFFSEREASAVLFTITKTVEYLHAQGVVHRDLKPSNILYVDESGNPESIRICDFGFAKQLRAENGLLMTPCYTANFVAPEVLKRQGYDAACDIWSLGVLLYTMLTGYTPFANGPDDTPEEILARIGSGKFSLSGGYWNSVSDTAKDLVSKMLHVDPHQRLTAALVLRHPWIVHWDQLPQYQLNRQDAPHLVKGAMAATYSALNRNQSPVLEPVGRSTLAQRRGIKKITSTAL

An inhibition [1] of -3% was found for `Cc1n[nH]c(C)c1-c1ccc2c(NC(=O)c3ccc(N4CCN(C)CC4)cc3)n[nH]c2c1` in this work.

An inhibition [2] of 4.7%, an inhibition [3] of 6.3% and an inhibition [4] of -2.3% were found for `Cc1[nH]nc(C2CC2)c1-c1ccc2c(-c3ccc(N4CCN(C)CC4)nc3)n[nH]c2c1` in this work. For the same molecule, the inhibition [5] was -5.7%, the inhibition [6] was 1.3% and the inhibition [7] was -4%. The inhibition [8] was -3%, the inhibition [9] was 5% and the inhibition [10] was -1.7%.

An inhibition [11] of 3.3%, an inhibition [12] of -4.3% and an inhibition [13] of 1% were found for `COC(=O)Nc1cc(-c2c(C3CC3)n[nH]c2C)cc2[nH]ncc12` in this work. For the same molecule, the inhibition [14] was 23.7%, the inhibition [15] was -2.3% and the inhibition [16] was 8%. The inhibition [17] was 4%, the inhibition [18] was -1% and the inhibition [19] was 5.3%. It also gave an inhibition [20] of 5.7%, an inhibition [21] of 4% and an inhibition [22] of 7%. The inhibition [23] was 17.7% and the inhibition [24] was -2.3%.
